Experimental data: BindingDB's records for doi:10.7270/Q2NV9GNV (Vanderbilt Screening Center for GPCRs, Ion Channels and …, 2009)

Target: T1, Muscarinic acetylcholine receptor M4 (Rattus norvegicus, UniProt P08485)
T1 sequence (P08485 whole entry): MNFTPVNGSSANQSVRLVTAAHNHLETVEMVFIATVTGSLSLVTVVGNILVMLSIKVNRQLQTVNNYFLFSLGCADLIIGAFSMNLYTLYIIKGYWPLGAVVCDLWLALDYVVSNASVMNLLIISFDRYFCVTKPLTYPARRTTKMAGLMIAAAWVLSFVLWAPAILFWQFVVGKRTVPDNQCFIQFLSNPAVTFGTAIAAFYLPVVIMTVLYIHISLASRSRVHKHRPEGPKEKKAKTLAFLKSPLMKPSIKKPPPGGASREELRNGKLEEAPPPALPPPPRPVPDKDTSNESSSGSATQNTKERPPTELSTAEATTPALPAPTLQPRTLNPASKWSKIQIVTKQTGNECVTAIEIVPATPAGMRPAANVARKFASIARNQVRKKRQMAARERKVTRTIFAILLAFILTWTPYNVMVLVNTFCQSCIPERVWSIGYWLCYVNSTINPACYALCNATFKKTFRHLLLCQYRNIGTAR
Assay: rat M4 radioligand competition binding – biochemical, NMS competition, mechanism study for M4 PAM project, late-stage follow-up (AID 1939)
Details: inactive by the depositor's call

Cc1cc(C)c2c(N)c(C(=O)NCc3ccc4c(c3)OCO4)sc2n1 [3-amino-4,6-dimethyl-N-piperonyl-thieno[2,3-b]pyridine-2-carboxamide]
Ki: 46.8 nM
